Assay results reported in patent publication US8318674B2, “Local treatment of bone defects” (Kuros Biosurgery AG, priority 2005, dated 2012).

Experiments:
[1] = Stability of PTH or TGPTH in buffer (spiked samples, direct ELISA); format: physicochemical; conditions: 0.5 μg/mL, 37° C., distilled water, phosphate buffer saline, tris-buffer saline
Procedure: For the first release assay, a fibrin matrix of 50 μl with 0.1 mg PTH or TGPTH per ml fibrin matrix was incubated at 37° C. in 10 ml buffer. Therefore, the concentration of PTH or TGPTH in the buffer in case of a total release would be 0.5 μg PTH or TGPTH/mL fibrin matrix. In order to compare the stability of PTH or TGPTH during the assay, samples of PTH or TGPTH were diluted directly in the buffer to a concentration of 0.5 μg PTH or TGPTH/mL fibrin matrix. Different buffers were tested: distilled water, phosphate buffer saline, tris-buffer saline.
Aliquots were taken at days 0, 1, 2, 4 and 6 and analysed by direct ELISA. […] Therefore, no conclusion could be made on the release data. The PTH stability was certainly affected by its low concentration and the buffers that were not optimal.
The release experiment was repeated by using a stabilizing buffer containing 50 mM mannitol in a 10 mM sodium acetate buffer. In addition, the buffer was exchanged every 2 days in order to prevent any degradation of peptide. […] The concentration of PTH or TGPTH in the buffer in case of a total release would be 100 μg/mL fibrin matrix (200 times more than before). […] Samples were collected every 2 to 4 days (with a change of buffer) during 2 weeks and analysed by direct ELISA. […]

[2] = target: T1, parathyroid hormone receptor (Homo sapiens, UniProt Q03431); experiment: Reporter gene assay for bioactivity of PTH fusion peptides; format: cell-based; conditions: luciferase reporter linked to PTH receptor promoter; equal amounts; compared to international 84 amino acid standard
T1 construct: endogenous in cells; transfected only with a luciferase reporter plasmid driven by the PTH receptor promoter
T1 sequence (Q03431 27-593): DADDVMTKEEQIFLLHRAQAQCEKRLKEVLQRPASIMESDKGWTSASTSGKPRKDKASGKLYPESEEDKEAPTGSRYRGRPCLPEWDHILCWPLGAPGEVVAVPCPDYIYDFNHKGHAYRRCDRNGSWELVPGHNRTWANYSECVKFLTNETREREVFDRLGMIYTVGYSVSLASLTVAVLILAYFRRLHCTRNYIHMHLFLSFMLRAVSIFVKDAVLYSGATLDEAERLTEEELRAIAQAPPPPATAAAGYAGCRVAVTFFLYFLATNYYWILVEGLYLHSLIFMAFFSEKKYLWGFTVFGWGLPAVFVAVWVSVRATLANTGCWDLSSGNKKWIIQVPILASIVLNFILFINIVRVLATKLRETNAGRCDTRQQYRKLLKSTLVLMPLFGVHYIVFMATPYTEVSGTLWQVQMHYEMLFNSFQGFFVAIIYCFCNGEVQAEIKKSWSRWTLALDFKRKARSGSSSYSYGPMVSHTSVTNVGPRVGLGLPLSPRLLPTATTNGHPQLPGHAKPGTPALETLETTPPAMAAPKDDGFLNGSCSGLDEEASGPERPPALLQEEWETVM
Procedure: Cells transfected with a reporter gene linked to a promoter for a PTH receptor were treated with equal amounts of either PTH1-34, TG-pl-PTH1-34 (described hereinafter) or the international 84 amino acid standard. The inhibition of expression of the luciferase reporter gene was measured and compared to transfected cells that were not exposed to PTH in solution (control).
To study the bioactivity of the PTH fusion peptides, a reporter gene assay was established. In this assay, a plasmid that contains luciferase reporter gene which is linked to the promoter for the parathyroid hormone receptor is transfected into cells. Then, if the cell is exposed to PTH and the PTH subsequently binds to its receptor on the cell, a signal cascade, directed through elevated cAMP levels, is initiated. Through a natural feedback regulation, this then leads to a reduction of PTH receptor levels. As the reduction is directed through the promoter, it also then leads to a decrease in production of the linked reporter gene. Using this assay, the activity of both native PTH1-34 as well as TG-pl-PTH1-34 were studied and compared to an international standard.

Compound | stability in buffer [1] [days] | level of activity (reduction in reporter gene expression) [2]
CC[C@H](C)[C@H](NC(=O)[C@H](CCC(=O)O)NC(=O)[C@H](CO)NC(=O)[C@@H](NC(=O)[C@@H](N)CO)C(C)C)C(=O)N[C@@H](CCC(N)=O)C(=O)N[C@@H](CC(C)C)C(=O)N[C@@H](CCSC)C(=O)N[C@@H](Cc1cnc[nH]1)C(=O)N[C@@H](CC(N)=O)C(=O)N[C@@H](CC(C)C)C(=O)NCC(=O)N[C@@H](CCCCN)C(=O)N[C@@H](Cc1cnc[nH]1)C(=O)N[C@@H](CC(C)C)C(=O)N[C@@H](CC(N)=O)C(=O)N[C@@H](CO)C(=O)N[C@@H](CCSC)C(=O)N[C@@H](CCC(=O)O)C(=O)N[C@@H](CCCN=C(N)N)C(=O)N[C@H](C(=O)N[C@@H](CCC(=O)O)C(=O)N[C@@H](Cc1c[nH]c2ccccc12)C(=O)N[C@@H](CC(C)C)C(=O)N[C@@H](CCCN=C(N)N)C(=O)N[C@@H](CCCCN)C(=O)N[C@@H](CCCCN)C(=O)N[C@@H](CC(C)C)C(=O)N[C@@H](CCC(N)=O)C(=O)N[C@@H](CC(=O)O)C(=O)N[C@H](C(=O)N[C@@H](Cc1cnc[nH]1)C(=O)N[C@@H](CC(N)=O)C(=O)N[C@@H](Cc1ccccc1)C(=O)O)C(C)C)C(C)C [PTH1-34] | ≤ 2 | 
NQEQVSPLYKNRSVSEIQLMHNLGKHLNSMERVEWLRKKLQDVHNF [TG-pl-PTH1-34] |  | the same as for the international standard
